Data from US12331033B2, “Inhibitors of SARM1” (Disarm Therapeutics, Inc., priority 2020, dated 2025).

The compounds below were run against SARM1 (ARM-SAM-TIR) (Homo sapiens (Human), UniProt Q6SZW1) (assay: ARM-SAM-TIR SARM1 IC50 assay (NADase activity, NAD+ cleavage, RapidFire MS)). Conditions: ARM-SAM-TIR lysate 5 μg/mL, 2 h pre-incubation, 5 μM NAD+, 2 hr room temperature.
SARM1 (ARM-SAM-TIR), sequence (Q6SZW1 other isoform, or with tags, fused parts or gaps): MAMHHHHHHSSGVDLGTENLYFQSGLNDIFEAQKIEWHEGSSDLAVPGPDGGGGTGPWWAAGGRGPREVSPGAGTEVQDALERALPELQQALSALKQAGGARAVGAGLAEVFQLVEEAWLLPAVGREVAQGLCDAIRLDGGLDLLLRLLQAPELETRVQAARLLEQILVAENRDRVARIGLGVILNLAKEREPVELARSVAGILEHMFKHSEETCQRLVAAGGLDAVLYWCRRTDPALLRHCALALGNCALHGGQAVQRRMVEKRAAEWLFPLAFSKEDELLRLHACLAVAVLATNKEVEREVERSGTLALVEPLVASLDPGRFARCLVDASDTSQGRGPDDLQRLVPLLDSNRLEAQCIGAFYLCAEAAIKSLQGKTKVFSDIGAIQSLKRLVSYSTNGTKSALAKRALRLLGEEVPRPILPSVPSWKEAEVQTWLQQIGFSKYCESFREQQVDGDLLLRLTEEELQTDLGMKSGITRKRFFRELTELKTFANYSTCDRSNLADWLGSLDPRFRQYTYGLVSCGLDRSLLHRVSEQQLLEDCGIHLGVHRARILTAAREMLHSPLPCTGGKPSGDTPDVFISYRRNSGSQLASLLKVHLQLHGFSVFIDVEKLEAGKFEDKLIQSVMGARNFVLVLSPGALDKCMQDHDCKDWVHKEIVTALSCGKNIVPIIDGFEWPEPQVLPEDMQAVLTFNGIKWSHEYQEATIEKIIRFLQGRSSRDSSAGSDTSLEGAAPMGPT
Format: biochemical
Description: This Example describes an assay of ARM-SAM-TIR NADase activity and use of this assay to measure the efficacy of compounds of Formula I or Formula I′ to block SARM1 mediated NAD+ cleavage. This assay was optimized in such a way as to characterize the efficacy of the compounds in Formula I or Formula I′ to inhibit SARM1 activity and to calculate an IC50 value for each compound. This assay makes use of full length SARM1, which encompasses the ARM, SAM and TIR domains.
NRK1-HEK293T cells were seeded onto 150 cm^2 plates at 20×10^6 cells per plate. The next day, the cells were transfected with 15 μg ARM-SAM-TIR expression plasmid, SEQ ID NO: 1.
The cultures were supplemented with 1 mM NR at time of transfection to minimize toxicity from ARM-SAM-TIR overexpression. Forty-eight hours after transfection, cells were harvested, pelleted by centrifugation at 1,000 rpm (Sorvall ST 16R centrifuge, Thermo Fisher), and washed once with cold PBS (0.01 M phosphate buffered saline NaCl 0.138 M; KCl 0.0027 M; pH 7.4). The cells were resuspended in PBS with protease inhibitors (cOmplete™ protease inhibitor cocktail, Roche product #11873580001) and cell lysates were prepared by sonication (Branson Sonifer 450, output=3, 20 episodes of stroke). The lysates were centrifuged (12,000×g for 10 min at 4° C.) to remove cell debris and the supernatants (containing ARM-SAM-TIR protein) were stored at −80° C. for later use in the in vitro ARM-SAM-TIR NADase assay (see below). Protein concentration was determined by the Bicinchoninic (BCA) method and used to normalize lysate concentrations.
The enzymatic assay was performed in a 384-well polypropylene plate in Dulbecco's PBS buffer in a final assay volume of 20 μL. ARM-SAM-TIR lysate with a final concentration of 5 μg/mL was pre-incubated with the respective compound at 1% DMSO final assay concentration over 2 h at room temperature. The reaction was initiated by addition of 5 μM final assay concentration of NAD+ as substrate. After a 2 hr room temperature incubation, the reaction was terminated with 40 μL of stop solution of 7.5% trichloroactetic acid in acetonitrile. The NAD+ and ADPR concentrations were analyzed by a RapidFire High Throughput Mass Spectrometry System (Agilent Technologies, Santa Clara, Calif.) using an API4000 triple quadrupole mass spectrometer (AB Sciex Framingham, Mass.).
With `O=C(CCc1ccc(C(F)(F)F)cc1)Nc1[nH]nc(-c2ccnnc2)c1Br` [Example 158] the IC50 was < 5 µM. `O=C(CCc1ccc(Cl)s1)Nc1nc(-c2ccncc2)c[nH]1` [Example 159] was tested, and the IC50 was < 5 µM. In the case of `O=C(NCc1cccc(Cl)c1)Nc1nnc(-c2ccncc2)[nH]1` [Example 160], the IC50 is reported as < 5 µM. `NS(=O)(=O)c1c(-c2ccncc2)n[nH]c1NC(=O)CCc1ccc(Cl)cc1` [Example 161] was tested, and the IC50 was 5 to 15 µM. In the case of `[2H]C([2H])(C(=O)Nc1cc(-c2ccncc2)n[nH]1)C([2H])([2H])c1ccc(Cl)cc1` [Example 162], the IC50 is reported as < 5 µM. In the case of `Cn1cncc1-c1nnc(NC(=O)CCc2ccc(Cl)cc2)[nH]1` [Example 163], the IC50 is reported as < 5 µM. `CN(Cc1ccc(Cl)cc1)C(=O)Nc1nnc(-c2ccncc2)[nH]1` [Example 164] was tested, and the IC50 was < 5 µM. For `O=C(NCc1ccc(Cl)nc1)Nc1nnc(-c2ccncc2)[nH]1` [Example 165], the IC50 was < 5 µM. `O=C(Nc1nnc(-c2ccncc2)[nH]1)N1CCc2nc(Cl)ccc2C1` [Example 166] was tested, and the IC50 was < 5 µM. With `O=C(CCc1ccc(Cl)cc1)Nc1[nH]nc(-c2ccncc2)c1Br` [Example 167] the IC50 was < 5 µM. In the case of `O=C(CCc1ccc(Cl)cc1)Nc1[nH]nc(-c2ccncc2)c1F` [Example 168], the IC50 is reported as < 5 µM. `[2H]C([2H])(C(=O)Nc1nnc(-c2ccncc2)[nH]1)C([2H])([2H])c1ccc(Cl)cc1` [Example 169] was tested, and the IC50 was < 5 µM. With `[2H]C([2H])(C(=O)Nc1[nH]nc(-c2ccncc2)c1C)C([2H])([2H])c1ccc(Cl)cc1` [Example 170] the IC50 was < 5 µM. With `[2H]C([2H])(C(=O)Nc1[nH]nc(-c2ccncc2)c1C)C([2H])([2H])c1ccc(Cl)nc1` [Example 171] the IC50 was < 5 µM. `O=C(CC1CCOc2cc(Cl)ccc21)Nc1cc(-c2ccncc2)n[nH]1` (stereo not drawn) [Example 172] was tested, and the IC50 was < 5 µM. With `Cc1c(-c2ccncc2)n[nH]c1NC(=O)CC1CCOc2cc(Cl)ccc21` (stereo not drawn) [Example 173] the IC50 was < 5 µM. With `O=C(NCc1ccc(Cl)nc1)Nc1cc(-c2ccncc2)n[nH]1` [Example 174] the IC50 was < 5 µM. `NC(Cc1ccc(Cl)c(F)c1)C(=O)Nc1cc(-c2ccncc2)n[nH]1` (stereo not drawn) [Example 175] was tested, and the IC50 was < 5 µM. `CN[C@@H](Cc1ccc(Cl)cc1)C(=O)Nc1cc(-c2ccncc2)n[nH]1` [Example 176] was tested, and the IC50 was < 5 µM. In the case of `[2H]C([2H])(C(=O)Nc1[nH]nc(-c2ccnnc2)c1C)C([2H])([2H])c1ccc(Cl)cc1` [Example 177], the IC50 is reported as < 5 µM. In the case of `[2H]C([2H])(C(=O)Nc1[nH]nc(-c2ccnnc2)c1C)C([2H])([2H])c1ccc(Cl)nc1` [Example 178], the IC50 is reported as < 5 µM. `O=C(CC1CCOc2nc(Cl)ccc21)Nc1nnc(-c2ccncc2)[nH]1` (stereo not drawn) [Example 179] was tested, and the IC50 was < 5 µM. In the case of `O=C(CC1CCOc2cc(Cl)ncc21)Nc1nnc(-c2ccncc2)[nH]1` (stereo not drawn) [Example 180], the IC50 is reported as < 5 µM. In the case of `O=C(Nc1cc(-c2ccncc2)n[nH]1)[C@H]1C[C@H](c2ccc(Cl)cc2)C1` [Example 181], the IC50 is reported as < 5 µM. With `Cc1c(-c2ccncc2)n[nH]c1NC(=O)[C@H]1C[C@H](c2ccc(Cl)cc2)C1` [Example 182] the IC50 was < 5 µM. `O=C(Nc1nnc(-c2ccncc2)[nH]1)NC1CCOc2cc(Cl)ccc21` (stereo not drawn) [Example 183] gave an IC50 of 5 to 15 µM. `O=C(Nc1nnc(-c2ccncc2)[nH]1)NC1CCOc2nc(Cl)ccc21` (stereo not drawn) [Example 184] was tested, and the IC50 was 5 to 15 µM. For `O=C(Nc1nnc(-c2ccncc2)[nH]1)N1CCc2cc(Cl)ccc2C1` [Example 185], the IC50 was < 5 µM. With `N#Cc1c(-c2ccncc2)n[nH]c1NC(=O)CCc1ccc(Cl)cc1` [Example 186] the IC50 was < 5 µM. For `CCOC(=O)c1c(-c2ccncc2)n[nH]c1NC(=O)CCc1ccc(Cl)cc1` [Example 187], the IC50 was < 5 µM. For `Cc1c(-c2ccncc2)n[nH]c1NC(=O)CCc1ccc(Cl)c(F)c1` [Example 188], the IC50 was < 5 µM. For `[2H]C([2H])(C(=O)Nc1cc(-c2ccnnc2)n[nH]1)C([2H])([2H])c1ccc(Cl)cc1` [Example 189], the IC50 was < 5 µM. For `[2H]C([2H])(C(=O)Nc1cc(-c2ccnnc2)n[nH]1)C([2H])([2H])c1ccc(Cl)nc1` [Example 190], the IC50 was < 5 µM. With `[2H]C([2H])(C(=O)Nc1nnc(-c2ccnnc2)[nH]1)C([2H])([2H])c1ccc(Cl)nc1` [Example 191] the IC50 was < 5 µM. For `O=C(CC1CCOc2cc(Cl)ccc21)Nc1cc(-c2ccnnc2)n[nH]1` (stereo not drawn) [Example 192], the IC50 was < 5 µM. For `O=C(CC1CCOc2cc(Cl)ccc21)Nc1nnc(-c2ccnnc2)[nH]1` (stereo not drawn) [Example 193], the IC50 was < 5 µM. In the case of `O=C(CCc1ccc(Cl)cc1)Nc1[nH]nc(-c2ccncc2)c1CO` [Example 194], the IC50 is reported as < 5 µM. In the case of `N#Cc1c(-c2ccncc2)n[nH]c1NC(=O)CCc1ccc(Cl)nc1` [Example 195], the IC50 is reported as < 5 µM. In the case of `O=C(Nc1nnc(-c2ccnnc2)[nH]1)[C@H]1C[C@H](c2ccc(Cl)cc2)C1` [Example 196], the IC50 is reported as < 5 µM. `O=C(Nc1cc(-c2ccnnc2)n[nH]1)[C@H]1C[C@H](c2ccc(Cl)cc2)C1` [Example 197] was tested, and the IC50 was < 5 µM. In the case of `Cc1cnccc1-c1cc(NC(=O)CCc2ccc(Cl)cc2)[nH]n1` [Example 198], the IC50 is reported as < 5 µM. `Cc1c(-c2ccncc2)n[nH]c1NC(=O)CC1Cc2ccccc2C1` [Example 199] gave an IC50 of 5 to 15 µM. For `Cc1c(-c2ccncc2)n[nH]c1NC(=O)CCc1ccc(C(F)(F)F)cc1` [Example 200], the IC50 was < 5 µM. `Cc1c(-c2ccncc2)n[nH]c1NC(=O)[C@@H](N)Cc1ccc(Cl)cc1` [Example 201] was tested, and the IC50 was < 5 µM. With `Cc1c(-c2ccncc2)n[nH]c1NC(=O)CCc1ccc(Cl)s1` [Example 202] the IC50 was < 5 µM. With `O=C(CCc1ccc(Cl)cc1)Nc1[nH]nc(-c2ccncc2)c1C1CCC1` [Example 203] the IC50 was < 5 µM. With `O=C(CCc1ccc(Cl)nc1)Nc1[nH]nc(-c2ccncc2)c1C1CCC1` [Example 204] the IC50 was 5 to 15 µM. In the case of `Cc1c(-c2ccnnc2)n[nH]c1NC(=O)CCc1ccc(Cl)nc1` [Example 205], the IC50 is reported as < 5 µM. `O=C(C[C@H]1CCOc2cc(Cl)ccc21)Nc1cc(-c2ccnnc2)n[nH]1` [Example 206] was tested, and the IC50 was < 5 µM. With `O=C(C[C@@H]1CCOc2cc(Cl)ccc21)Nc1cc(-c2ccnnc2)n[nH]1` [Example 207] the IC50 was < 5 µM. With `O=C(C[C@H]1CCOc2cc(Cl)ccc21)Nc1nnc(-c2ccncc2)[nH]1` [Example 208] the IC50 was < 5 µM. For `O=C(C[C@@H]1CCOc2cc(Cl)ccc21)Nc1nnc(-c2ccncc2)[nH]1` [Example 209], the IC50 was < 5 µM. With `O=C(Nc1cc(-c2ccnnc2)n[nH]1)[C@H]1C[C@H](c2ccc(Cl)nc2)C1` [Example 210] the IC50 was < 5 µM. `N#Cc1c(-c2ccncc2)c[nH]c1NC(=O)CCc1ccc(Cl)nc1` [Example 211] was tested, and the IC50 was < 5 µM. `O=C(C[C@H]1CCOc2cc(Cl)ccc21)Nc1cc(-c2ccncc2)n[nH]1` [Example 212] was tested, and the IC50 was < 5 µM. For `O=C(C[C@@H]1CCOc2cc(Cl)ccc21)Nc1cc(-c2ccncc2)n[nH]1` [Example 213], the IC50 was < 5 µM. `Cc1c(-c2ccncc2)n[nH]c1NC(=O)C[C@H]1CCOc2cc(Cl)ccc21` [Example 214] was tested, and the IC50 was < 5 µM. `Cc1c(-c2ccncc2)n[nH]c1NC(=O)C[C@@H]1CCOc2cc(Cl)ccc21` [Example 215] was tested, and the IC50 was < 5 µM. `Cc1c(-c2ccncc2)n[nH]c1NC(=O)N1CC(c2ccccc2)C1` [Example 216] was tested, and the IC50 was < 5 µM. `Cc1cnccc1-c1nnc(NC(=O)CCc2ccc(Cl)cc2)[nH]1` [Example 217] was tested, and the IC50 was < 5 µM. `Cc1c(-c2ccncc2)n[nH]c1NC(=O)N1CC(c2ccc(Cl)cc2)C1` [Example 218] was tested, and the IC50 was < 5 µM. For `CCc1c(-c2ccncc2)n[nH]c1NC(=O)CCc1ccc(Cl)nc1` [Example 219], the IC50 was < 5 µM. `Cc1c(-c2ccncc2)n[nH]c1NC(=O)C1CN(c2ccc(Cl)cc2)C1` [Example 220] gave an IC50 of 5 to 15 µM. `Cc1c(-c2ccncc2)n[nH]c1NC(=O)CCc1ccc(F)cc1` [Example 221] was tested, and the IC50 was < 5 µM. In the case of `Cc1c(-c2ccncc2)n[nH]c1NC(=O)CCc1cc(F)cc(F)c1` [Example 222], the IC50 is reported as < 5 µM. With `Cc1c(-c2ccncc2)n[nH]c1NC(=O)C(O)Cc1ccc(Cl)cc1` (stereo not drawn) [Example 223] the IC50 was < 5 µM. With `Cc1c(-c2ccncc2)n[nH]c1NC(=O)CN(C)c1ccc(Cl)cc1` [Example 224] the IC50 was 5 to 15 µM. `N#Cc1cnccc1-c1nnc(NC(=O)CCc2ccc(Cl)cc2)[nH]1` [Example 225] was tested, and the IC50 was < 5 µM. With `O=C(Nc1nnc(-c2ccncc2)[nH]1)NC1CCOc2cc(Cl)ncc21` (stereo not drawn) [Example 226] the IC50 was < 5 µM. In the case of `O=C(CCc1ccc(Cl)cc1)Nc1[nH]nc(-c2ccncc2)c1C1CC1` [Example 227], the IC50 is reported as < 5 µM. In the case of `O=C(CCc1ccc(Cl)nc1)Nc1[nH]nc(-c2ccncc2)c1C1CC1` [Example 228], the IC50 is reported as < 5 µM. With `CCOC(=O)Cc1c(-c2ccncc2)n[nH]c1NC(=O)CCc1ccc(Cl)cc1` [Example 229] the IC50 was < 5 µM.
